“And” between values parts separate entries of the source, which are not always exact repeats. Equal values may be shown once.
How the values were obtained:
[1] = target: dopamine receptor 1 (Homo sapiens, UniProt P21728); experiment: In vitro safety: off-target receptor binding and enzyme assays, D1; conditions: in vitro safety panel
Experimental: (§1) A range of off-target receptor binding assays and enzyme assays were carried out using conventional methods available in the art.

[2] = target: T1, CYP2D6 (Homo sapiens, UniProt P10635); experiment: Inhibition of recombinant CYP enzymes (rCYP), CYP2D6; format: in vitro ADME; conditions: average of two experiments, read-out: rCYP IC50 2D6
T1 sequence (P10635 whole entry): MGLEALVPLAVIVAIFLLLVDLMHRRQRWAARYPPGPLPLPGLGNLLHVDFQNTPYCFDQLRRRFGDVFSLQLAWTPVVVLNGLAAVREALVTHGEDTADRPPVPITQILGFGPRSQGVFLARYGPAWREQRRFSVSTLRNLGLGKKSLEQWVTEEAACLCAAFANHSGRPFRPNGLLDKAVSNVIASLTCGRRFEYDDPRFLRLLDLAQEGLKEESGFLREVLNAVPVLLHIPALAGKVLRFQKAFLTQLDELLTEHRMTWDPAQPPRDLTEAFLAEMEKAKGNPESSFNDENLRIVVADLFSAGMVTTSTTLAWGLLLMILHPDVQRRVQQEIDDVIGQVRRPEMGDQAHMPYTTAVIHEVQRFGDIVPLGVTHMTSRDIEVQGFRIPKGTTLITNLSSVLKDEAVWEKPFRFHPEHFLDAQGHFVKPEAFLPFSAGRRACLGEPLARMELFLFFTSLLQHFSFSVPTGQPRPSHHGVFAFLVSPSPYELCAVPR

[3] = target: T2, CYP1A2 (Homo sapiens, UniProt P05177); experiment: Inhibition of recombinant CYP enzymes (rCYP), CYP1A2
T2 sequence (P05177 1-516): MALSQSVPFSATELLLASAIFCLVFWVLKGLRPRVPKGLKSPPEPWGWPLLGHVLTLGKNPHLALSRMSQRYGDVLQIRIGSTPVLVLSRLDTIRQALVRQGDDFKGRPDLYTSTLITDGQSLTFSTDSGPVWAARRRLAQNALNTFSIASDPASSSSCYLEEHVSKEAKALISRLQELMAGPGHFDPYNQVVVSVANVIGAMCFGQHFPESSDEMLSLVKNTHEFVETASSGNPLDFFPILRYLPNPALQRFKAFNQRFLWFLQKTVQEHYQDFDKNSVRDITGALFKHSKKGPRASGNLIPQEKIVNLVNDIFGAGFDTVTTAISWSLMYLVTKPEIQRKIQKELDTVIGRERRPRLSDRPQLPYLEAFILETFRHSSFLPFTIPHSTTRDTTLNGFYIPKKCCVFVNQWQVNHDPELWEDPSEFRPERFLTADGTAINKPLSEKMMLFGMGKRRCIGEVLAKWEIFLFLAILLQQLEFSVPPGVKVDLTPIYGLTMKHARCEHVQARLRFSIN

[4] = target: T3, CYP2C8 (Homo sapiens, UniProt P10632); experiment: Inhibition of CYP enzymes in human liver microsomes (HLM), CYP2C8; format: in vitro ADME
T3 sequence (P10632 1-490): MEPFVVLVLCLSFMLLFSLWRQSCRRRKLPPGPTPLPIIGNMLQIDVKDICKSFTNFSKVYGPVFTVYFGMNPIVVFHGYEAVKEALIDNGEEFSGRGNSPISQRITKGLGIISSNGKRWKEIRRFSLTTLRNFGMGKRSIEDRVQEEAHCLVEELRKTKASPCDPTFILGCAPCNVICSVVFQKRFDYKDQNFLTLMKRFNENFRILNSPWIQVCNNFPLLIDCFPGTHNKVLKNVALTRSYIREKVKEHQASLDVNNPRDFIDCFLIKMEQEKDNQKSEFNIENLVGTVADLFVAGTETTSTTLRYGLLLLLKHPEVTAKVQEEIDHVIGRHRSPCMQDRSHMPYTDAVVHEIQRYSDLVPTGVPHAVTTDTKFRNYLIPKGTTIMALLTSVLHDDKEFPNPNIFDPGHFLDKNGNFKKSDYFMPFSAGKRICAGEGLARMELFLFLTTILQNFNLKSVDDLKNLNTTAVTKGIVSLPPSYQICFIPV

[5] = target: T1, CYP2D6; experiment: Inhibition of CYP enzymes in human liver microsomes (HLM), CYP2D6; conditions: IC50 shift 0 vs 30 min preincubation (TDI ratio)
[6] = target: T4, CYP3A4 (Homo sapiens, UniProt P08684); experiment: biochemical
T4 sequence (P08684 whole entry): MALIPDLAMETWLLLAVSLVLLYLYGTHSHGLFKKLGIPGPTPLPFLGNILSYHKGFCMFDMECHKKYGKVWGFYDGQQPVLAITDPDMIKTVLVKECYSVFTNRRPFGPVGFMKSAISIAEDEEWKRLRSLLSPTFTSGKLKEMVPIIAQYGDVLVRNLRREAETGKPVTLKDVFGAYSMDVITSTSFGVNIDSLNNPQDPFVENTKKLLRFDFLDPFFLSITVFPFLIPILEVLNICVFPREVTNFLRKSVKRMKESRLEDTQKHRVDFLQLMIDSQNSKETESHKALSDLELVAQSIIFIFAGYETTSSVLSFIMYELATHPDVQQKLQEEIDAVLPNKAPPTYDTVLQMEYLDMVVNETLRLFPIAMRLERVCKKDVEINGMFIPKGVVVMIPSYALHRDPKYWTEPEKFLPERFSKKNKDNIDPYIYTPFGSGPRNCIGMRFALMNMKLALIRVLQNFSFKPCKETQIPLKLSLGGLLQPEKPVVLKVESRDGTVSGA

[7] = system: major human Cytochrome P450 (CYP) enzymes; experiment: HLM TDI panel, other CYP enzymes; format: in vitro ADME; conditions: CYP enzymes other than 3A4 and 2D6
[8] = target: T4, CYP3A4; experiment: Inhibition of CYP enzymes in human liver microsomes (HLM), CYP3A4 (midazolam and testosterone); conditions: IC50 shift 0 vs 30 min preincubation (TDI ratio)
[9] = system: Aβ42; experiment: Determination of Aβ42 IC50; format: cell-based
Experimental: (§2) Aβ42 IC50 was determined as described by Gillman, J. E. Starrett Jr., M. F. Parker, et al., “Discovery and evaluation of BMS-708163, a potent, and orally bioavailable gamma-secretase inhibitor”, ACS Medicinal Chemistry Letters, vol. 1., pp. 120-124, 2010. Mouse brain Aβ42 was determined as described by J. H. Toyn, X-A. Lin, M. W. Thompson et al., “Viable mouse gene ablations that robustly alter bran Abeta levels are are”, Biomed. Central Neuroscience, vol. 11, pp. 143, […].

[10] = target: adenosine 2A receptor (Homo sapiens, UniProt P29274); experiment: In vitro safety: off-target receptor binding and enzyme assays, A2A; conditions: in vitro safety panel
adenosine 2A receptor, sequence (P29274 whole entry): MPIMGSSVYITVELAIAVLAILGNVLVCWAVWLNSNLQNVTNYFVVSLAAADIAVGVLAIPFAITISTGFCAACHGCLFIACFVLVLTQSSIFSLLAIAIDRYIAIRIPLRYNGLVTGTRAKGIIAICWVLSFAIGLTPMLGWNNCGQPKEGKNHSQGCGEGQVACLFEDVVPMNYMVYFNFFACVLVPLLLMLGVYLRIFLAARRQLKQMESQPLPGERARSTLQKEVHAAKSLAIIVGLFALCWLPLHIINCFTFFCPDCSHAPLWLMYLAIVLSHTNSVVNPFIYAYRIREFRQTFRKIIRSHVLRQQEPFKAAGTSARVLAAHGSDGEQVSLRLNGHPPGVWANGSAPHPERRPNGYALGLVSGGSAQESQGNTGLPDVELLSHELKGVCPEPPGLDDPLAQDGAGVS
Experimental: as §1

[11] = target: T5, CYP2C9 (Homo sapiens, UniProt P11712); experiment: Inhibition of CYP enzymes in human liver microsomes (HLM), CYP2C9; format: in vitro ADME
T5 sequence (P11712 whole entry): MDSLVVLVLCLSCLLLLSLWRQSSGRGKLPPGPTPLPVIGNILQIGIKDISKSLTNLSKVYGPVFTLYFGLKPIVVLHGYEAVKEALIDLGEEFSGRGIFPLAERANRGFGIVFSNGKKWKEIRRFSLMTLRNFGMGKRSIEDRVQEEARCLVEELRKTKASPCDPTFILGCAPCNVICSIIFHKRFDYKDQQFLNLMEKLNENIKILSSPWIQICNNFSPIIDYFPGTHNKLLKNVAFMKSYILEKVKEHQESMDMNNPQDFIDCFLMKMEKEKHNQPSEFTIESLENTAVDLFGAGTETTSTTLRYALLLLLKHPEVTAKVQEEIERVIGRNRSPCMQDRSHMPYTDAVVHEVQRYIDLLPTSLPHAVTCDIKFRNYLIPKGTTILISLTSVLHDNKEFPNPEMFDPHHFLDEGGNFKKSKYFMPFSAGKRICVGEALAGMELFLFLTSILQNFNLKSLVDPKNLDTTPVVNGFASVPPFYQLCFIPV

[12] = target: T5, CYP2C9; experiment: Inhibition of recombinant CYP enzymes (rCYP), CYP2C9; format: in vitro ADME; conditions: average of two experiments, read-out: rCYP IC50 2C9
[13] = target: CYP2C19 (Homo sapiens, UniProt P33261); experiment: Inhibition of CYP enzymes in human liver microsomes (HLM), CYP2C19
CYP2C19, sequence (P33261 whole entry): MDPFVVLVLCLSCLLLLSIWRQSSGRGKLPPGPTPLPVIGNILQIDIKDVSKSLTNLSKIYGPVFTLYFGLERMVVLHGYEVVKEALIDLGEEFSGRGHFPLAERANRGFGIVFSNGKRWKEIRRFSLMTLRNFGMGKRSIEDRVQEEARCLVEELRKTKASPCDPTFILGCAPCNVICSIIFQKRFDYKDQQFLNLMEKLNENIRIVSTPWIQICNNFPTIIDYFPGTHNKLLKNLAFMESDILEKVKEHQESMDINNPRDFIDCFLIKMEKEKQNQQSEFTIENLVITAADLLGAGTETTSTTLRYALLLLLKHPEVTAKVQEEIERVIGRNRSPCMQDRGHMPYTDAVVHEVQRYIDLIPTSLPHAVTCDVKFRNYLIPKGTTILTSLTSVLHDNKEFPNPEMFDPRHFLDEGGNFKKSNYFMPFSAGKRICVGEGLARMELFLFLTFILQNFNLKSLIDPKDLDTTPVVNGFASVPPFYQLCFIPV

[14] = target: 43 receptor and Enzyme panel (all others); experiment: In vitro safety: 43 receptor and enzyme panel, all others; conditions: targets other than A2A, DAT, D1, MAO A, read-out: 43 receptor and Enzyme IC50s, all others
Experimental: as §1

[15] = target: T1, CYP2D6; experiment: biochemical
[16] = target: T4, CYP3A4; experiment: HLM CYP3A4 Inactivation Assay; format: in vitro ADME
Experimental: Human liver microsomes pooled from 150 donors (UltraPool 150), [^13C3]1′-hydroxymidazolam and [^2H7]6β-hydroxytestosterone were purchased from BD Gentest (Woburn, Mass.), midazolam and testosterone from Sigma-Aldrich (Saint Louis, Mo.), NADPH from AKRON Biotech (Boca Raton, Fla.).
After a 2-minute incubation at 37° C., the secondary reactions were terminated by the addition of a quench buffer (1:1, v/v), containing an internal standard (stable-isotope-labeled metabolite of the probe substrate).
Reaction buffer (in both primary and secondary reactions) consisted of 100 mM potassium phosphate, pH 7.4, 2 mM MgCl2, and 1 mM NADPH. Quench buffer was a mixture of water, acetonitrile, and formic acid (94:5:1, v/v/v) containing one of the internal standards (0.2 μM [^13C3]1′-hydroxymidazolam or 3 μM [^2H7]6β-hydroxytestosterone).
Quenched reaction mixtures (in 96-well microplates) were initially frozen at −80° C. and then, before LC-MS/MS analysis, the samples were thawed at room temperature and centrifuged at ˜2500×g for 10 minutes to precipitate denatured microsomal protein. Supernatants were used to quantify the amount of a metabolite of the probe substrate in the reaction samples.
The LC-MS/MS system consisted of a Thermo Cohesive ARIA LX-2 (Waltham, Mass.) with Shimadzu LC-20AD XR pumps (Kyoto, Japan) for gradient elution and an AB Sciex API 4500 triple-quadrupole mass spectrometer (Foster City, Calif.), using Turbo V™ source for sample analysis. Samples were injected using dual-arm CTC HTS PAL autosampler from LEAP Technologies (Carrboro, N.C.
To quantify 1′-hydroxymidazolam, the mass spectrometer was operated under positive ionization mode and SRM used for analysis. […] The dwell time was 75 ms for each transition. The declustering potential was 70 V and the collision energy 38 eV. A Kinetex 2.6 μm XB-C18 100A, 50 mm×2.1 mm HPLC column from Phenomenex (Torrance, Calif.) and the injection volume was 10 μL. Mobile phase A was water with 0.2% formic acid, and mobile phase B was acetonitrile with 0.2% formic acid. […] The total cycle time was 90 seconds per injection.
To quantify 6β-hydroxytestosterone, the mass spectrometer was operated under positive ionization mode and SRM used for analysis. […]
The signal intensity of the metabolite in MS/MS analysis was normalized to the signal of internal standard; thus signal intensity was expressed as signal ratio. […] Percent CYP3A4 enzyme activity remaining after preincubation was calculated as: % Activity(Remaining)=(S/T)*100 Where: S=sample signal, T=solvent control signal,
The kinetic parameters (kinact and KI) were then calculated by fitting the kobs values plotted against inhibitor concentrations ([I]) using the non-linear regression model (Michaelis-Menten equation) in the GRAPH PAD PRISM v.5.0 software (San Diego, Calif.):

[17] = system: Mouse brain Aβ42; experiment: Mouse brain Aβ42; format: in vivo; conditions: for Mouse Aβ42: mouse brain; for B/P / Compound concentration in the Mouse Aβ42 study: mouse; for Compound concentration in the Mouse Aβ42 study: matrix not given
Experimental: as §2

[18] = target: T3, CYP2C8; experiment: Inhibition of recombinant CYP enzymes (rCYP), CYP2C8; format: in vitro ADME; conditions: average of two experiments, read-out: rCYP IC50 2C8
[19] = HLM, IC50 shift 0 vs 30 min preincubation (TDI ratio)
[20] = HLM, all tested concentrations 0.31-20 μM, up to 25 min

dopamine receptor 1, sequence (P21728 whole entry): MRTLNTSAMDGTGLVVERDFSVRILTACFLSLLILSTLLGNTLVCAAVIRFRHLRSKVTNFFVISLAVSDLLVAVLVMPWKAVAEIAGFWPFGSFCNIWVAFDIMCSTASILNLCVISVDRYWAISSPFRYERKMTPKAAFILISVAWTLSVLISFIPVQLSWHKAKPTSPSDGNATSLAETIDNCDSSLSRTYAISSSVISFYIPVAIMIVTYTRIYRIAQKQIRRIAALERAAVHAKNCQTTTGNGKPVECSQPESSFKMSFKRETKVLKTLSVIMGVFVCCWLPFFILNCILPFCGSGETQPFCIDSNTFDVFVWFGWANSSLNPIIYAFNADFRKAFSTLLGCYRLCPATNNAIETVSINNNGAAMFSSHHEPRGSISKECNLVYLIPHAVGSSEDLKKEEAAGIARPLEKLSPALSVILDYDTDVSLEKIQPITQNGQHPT

Q: Which IC50 [1] does the source give for `CNc1nc(Nc2ccc(-n3cnc(C)n3)c(OC(F)F)c2)nc2c1C(C)(C)CC2c1ccc(F)cc1` (single isomer, unassigned) [Enantiomer 1, N2-(3-(difluoromethoxy)-4-(3-methyl-1H-1,2,4-triazol-1-yl)phenyl)-7-(4-fluorophenyl)-N4,5,5-trimethyl-6,7-dihydro-5H-cyclopenta[d]pyrimidine-2,4-diamine] here?
A: 8 to 10 µM

Q: And the IC50 [2]?
A: > 20 µM

Q: And the IC50 [3]?
A: > 20 µM

Q: What about the IC50 ([4]; HLM, 0 min preincubation, read-out: IC50-0 min 2C8) of the same compound?
A: 4.2 µM

Q: And the “IC50 Ratio 2C8” value [4, 19]?
A: 1.9

Q: What about the IC50 ([4]; IC50-30 min 2C8, HLM, 30 min preincubation with NADPH) of the same compound?
A: 2.2 µM

Q: What about the “IC50 Ratio 2D6” value [5] of the same compound?
A: 2.2

Q: What about the IC50 [6] of the same compound?
A: ~40 µM and 12 µM and 15.1 µM and 4.5 µM and ~12 µM

Q: And the “HLM TDI panel TDI ratio, others” value [7]?
A: < 2

Q: And the “IC50 Ratio 3A4-(MDZ)” value ([8]; midazolam probe)?
A: 2.6

Q: What about the “IC50 Ratio 3A4-(TST)” value ([8]; testosterone probe) of the same compound?
A: 2.7

Q: And the IC50 [9]?
A: 0.0012 µM

Q: And the IC50 [10]?
A: 2 µM

Q: And the IC50 ([11]; HLM, 0 min preincubation, read-out: IC50-0 min 2C9)?
A: 12.7 µM

Q: And the “IC50 Ratio 2C9” value [11, 19]?
A: 1.4

Q: And the IC50 ([11]; IC50-30 min 2C9, HLM, 30 min preincubation with NADPH)?
A: 8.8 µM

Q: What about the IC50 [12] of the same compound?
A: 1.3 µM

Q: What about the “IC50 Ratio 2C19” value [13, 19] of the same compound?
A: 1.9

Q: What about the IC50 ([13]; IC50-0 min 2C19, HLM, 0 min preincubation) of the same compound?
A: 22.6 µM

Q: And the IC50 ([13]; IC50-30 min 2C19, HLM, 30 min preincubation with NADPH)?
A: 12.2 µM

Q: What about the IC50 [14] of the same compound?
A: > 10 µM

Q: What about the IC50 [15] of the same compound?
A: 34.5 µM and 15.6 µM

Q: And the “KI; Kinact” value ([16]; HLM CYP3A4 inactivation)?
A: Inactivation rates below the limit of reliable

Q: And the apparent rates of inactivation (kobs) with midazolam [16, 20]?
A: < 0.003 min⁻¹

Q: And the apparent rates of inactivation (kobs) with testosterone [16, 20]?
A: < 0.006 min⁻¹

Q: What about the “mechanism-based inhibition of CYP3A4” value ([16]; HLM, midazolam and testosterone probes) of the same compound?
A: not a mechanism-based inhibitor of CYP3A4

Q: And the “Mouse Aβ42” value ([17]; 8 mpk)?
A: 68%

Q: And the “Mouse Aβ42” value ([17]; 30 mpk)?
A: 29%

Q: And the B/P ([17]; 8 mpk)?
A: 0.7

Q: And the “Compound concentration in the Mouse Aβ42 study” value ([17]; 8 mpk)?
A: 391 nM

Q: What about the B/P ([17]; 30 mpk) of the same compound?
A: 1.4

Q: What about the “Compound concentration in the Mouse Aβ42 study” value ([17]; 30 mpk) of the same compound?
A: 1334 nM

Q: What about the IC50 [18] of the same compound?
A: 0.96 µM

From US9833454B2, “Difluoromethoxy compound with low bioactivation potential for the reduction of beta-amyloid production” (BRISTOL-MYERS SQUIBB COMPANY, priority 2014, dated 2017)
